Measured values: publication PMC9115112, “A2B adenosine receptor antagonists rescue lymphocyte activity in adenosine-producing patient-derived cancer models” (Journal for Immunotherapy of Cancer, 2022)

How the values were obtained:
human A2AAR = molecular target: T1, human A2AAR (Homo sapiens, UniProt P29274); assay: Radioligand binding, human A2AAR ([3H]ZM241385, transfected HeLa cells); settings: displacement of [3H]ZM241385, human HeLa cells, n=3, racemic mixtures; read-out: Ki hA2A
T1 construct: expressed in transfected cells; host or cells: HeLa
Protocol: (§1) The affinity and selectivity profiles of the ligands obtained was studied in vitro, radioligand binding assays, at the four human specific ARs subtypes, using experimental protocols previously described.[28–30] All ligands were prepared and tested as racemic mixtures. […] Non-specific binding was determined in the presence of R-PIA 10 µM for A1AR, NECA 50 µM for A2AAR, NECA 400 μΜ for A2BAR and R-PIA 100 μΜ for A3AR.

human A1AR = molecular target: T2, human A1AR (Homo sapiens, UniProt P30542); assay: Radioligand binding, human A1AR ([3H]DPCPX, transfected CHO cells); settings: displacement of [3H]DPCPX, transfected CHO cells, n=3, racemic mixtures; read-out: Ki hA1
T2 construct: expressed in transfected cells; host or cells: CHO
T2 sequence (P30542 1-326): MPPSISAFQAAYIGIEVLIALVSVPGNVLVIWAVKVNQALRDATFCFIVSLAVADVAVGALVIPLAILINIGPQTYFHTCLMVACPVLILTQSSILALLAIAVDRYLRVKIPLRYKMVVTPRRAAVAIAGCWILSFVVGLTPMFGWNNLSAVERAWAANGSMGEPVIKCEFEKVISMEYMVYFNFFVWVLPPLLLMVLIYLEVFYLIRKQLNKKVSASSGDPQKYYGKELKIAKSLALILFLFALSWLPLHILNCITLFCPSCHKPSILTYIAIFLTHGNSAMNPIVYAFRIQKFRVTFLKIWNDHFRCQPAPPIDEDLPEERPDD
Protocol: as §1

human A3AR = molecular target: T3, human A3AR (Homo sapiens, UniProt P0DMS8); assay: Radioligand binding, human A3AR ([3H]NECA, transfected HeLa cells); settings: displacement of [3H]NECA, n=3, racemic mixtures, read-out: Ki hA3
T3 construct: expressed in transfected cells; host or cells: HeLa
T3 sequence (P0DMS8 1-318): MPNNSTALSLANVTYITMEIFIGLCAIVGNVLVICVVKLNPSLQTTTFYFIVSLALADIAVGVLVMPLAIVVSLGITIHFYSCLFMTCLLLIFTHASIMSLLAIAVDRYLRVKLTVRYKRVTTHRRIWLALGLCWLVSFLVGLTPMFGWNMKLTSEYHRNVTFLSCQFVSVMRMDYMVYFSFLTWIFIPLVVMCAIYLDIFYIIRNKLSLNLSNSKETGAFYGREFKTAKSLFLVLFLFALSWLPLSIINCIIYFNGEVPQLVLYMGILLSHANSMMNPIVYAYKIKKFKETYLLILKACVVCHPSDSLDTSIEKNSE
Protocol: as §1

human A2BAR = molecular target: T4, human A2BAR (Homo sapiens, UniProt P29275); assay: Radioligand binding, human A2BAR ([3H]DPCPX, transfected HEK-293 cells); settings: displacement of [3H]DPCPX, human HEK-293 cells, n=3, racemic mixtures; read-out: Ki hA2B
T4 construct: expressed in transfected cells; host or cells: HEK-293
T4 sequence (P29275 1-332): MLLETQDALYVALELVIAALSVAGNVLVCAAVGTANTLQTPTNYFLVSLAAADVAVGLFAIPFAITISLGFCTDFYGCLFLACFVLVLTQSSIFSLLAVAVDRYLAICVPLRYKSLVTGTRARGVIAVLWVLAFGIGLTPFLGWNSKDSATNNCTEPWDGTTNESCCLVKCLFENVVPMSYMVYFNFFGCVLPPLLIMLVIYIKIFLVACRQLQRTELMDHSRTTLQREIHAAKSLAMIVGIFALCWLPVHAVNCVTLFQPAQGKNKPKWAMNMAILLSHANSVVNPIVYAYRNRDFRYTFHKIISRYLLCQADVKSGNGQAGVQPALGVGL
Protocol: as §1

Measured: Ki

T1 sequence (P29274 whole entry): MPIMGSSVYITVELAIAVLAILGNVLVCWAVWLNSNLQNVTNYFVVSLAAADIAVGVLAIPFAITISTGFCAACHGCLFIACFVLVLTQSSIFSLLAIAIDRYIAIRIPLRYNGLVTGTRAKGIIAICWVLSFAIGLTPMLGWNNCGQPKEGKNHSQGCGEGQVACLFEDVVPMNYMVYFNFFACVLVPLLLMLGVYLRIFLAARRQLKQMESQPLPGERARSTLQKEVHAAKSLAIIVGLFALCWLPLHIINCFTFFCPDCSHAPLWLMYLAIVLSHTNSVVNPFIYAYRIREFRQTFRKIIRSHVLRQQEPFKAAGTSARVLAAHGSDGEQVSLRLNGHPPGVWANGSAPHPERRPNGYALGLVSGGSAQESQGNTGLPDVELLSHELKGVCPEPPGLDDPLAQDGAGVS

CC1=C(C(=O)OC(C)C)C(c2ccco2)N2C(=N1)N(Cc1ccccc1F)c1ccccc12 (stereo not shown) [ISAM-R56B]
> 1 µM: all assays above
